Measurements: ChEMBL document CHEMBL3525956, “Species independence in brain tissue binding using brain homogenates” (Drug Metab Dispos, 2011)

Assays:
[1] = Fraction unbound in human occipital cortex at 1 uM after 6 hrs by equilibrium dialysis method
[2] = Fraction unbound in cynomolgus monkey brain homogenates at 1 uM after 6 hrs by equilibrium dialysis method; conditions: brain homogenate
[3] = Fraction unbound in CD-1 mouse brain homogenates at 1 uM after 6 hrs by equilibrium dialysis method; conditions: brain homogenate
[4] = Fraction unbound in Hartley guinea pig brain homogenates at 1 uM after 6 hrs by equilibrium dialysis method; conditions: brain homogenate
[5] = Fraction unbound in Wistar Han rat brain homogenates at 1 uM after 6 hrs by equilibrium dialysis method; conditions: brain homogenate
[6] = Fraction unbound in Beagle dog brain homogenates at 1 uM after 6 hrs by equilibrium dialysis method; conditions: brain homogenate
[7] = Fraction unbound in Sprague-Dawley rat brain homogenates at 1 uM after 6 hrs by equilibrium dialysis method; conditions: brain homogenate

Compound | fraction unbound at 6 h, 1 µM [1] | fraction unbound at 6 h, 1 µM [2] | fraction unbound at 6 h, 1 µM [3] | fraction unbound at 6 h, 1 µM [4] | fraction unbound at 6 h, 1 µM [5] | fraction unbound at 6 h, 1 µM [6] | fraction unbound at 6 h, 1 µM [7]
C[C@@H](O[C@H]1OCCN(Cc2n[nH]c(=O)[nH]2)[C@H]1c1ccc(F)cc1)c1cc(C(F)(F)F)cc(C(F)(F)F)c1 [APREPITANT] | 0.001 | 0.002 | 0.002 | 0.001 | 0.001 | 0.001 | 0.001
CCN(CC)C(=O)/C(C#N)=C/c1cc(O)c(O)c([N+](=O)[O-])c1 [ENTACAPONE] | 0.025 | 0.031 | 0.026 | 0.019 | 0.021 | 0.02 | 0.017
COC(=O)C1=C(C)NC(C)=C(C(=O)OCCN(C)Cc2ccccc2)C1c1cccc([N+](=O)[O-])c1 (centres undefined) [NICARDIPINE] | 0.006 | 0.006 | 0.004 | 0.004 | 0.005 | 0.006 | 0.008
NS(=O)(=O)Cc1noc2ccccc12 [ZONISAMIDE] | 0.308 | 0.386 | 0.299 | 0.389 | 0.327 | 0.428 | 0.598
NC1CCN(c2c(F)cc3c(=O)c(C(=O)O)cn(C4CC4)c3c2Cl)C1 (centres undefined) [CLINAFLOXACIN] | 0.157 | 0.139 | 0.377 | 0.167 | 0.148 | 0.398 | 0.435
CC(C)C[C@H]1C(=O)N2CCC[C@H]2[C@]2(O)O[C@](NC(=O)[C@@H]3C=C4c5cccc6[nH]c(Br)c(c56)C[C@H]4N(C)C3)(C(C)C)C(=O)N12 [BROMOCRIPTINE] | 0.002 | 0.002 | 0.002 | 0.002 | 0.002 | 0.002 | 0.001
Cc1nc2n(c(=O)c1CCN1CCC(c3noc4cc(F)ccc34)CC1)CCCC2O (centres undefined) [PALIPERIDONE] | 0.116 | 0.1 | 0.129 | 0.101 | 0.092 | 0.126 | 0.078
